In patent US20230293509A1, “METHOD AND COMPOUND FOR USE, IN TREATING AND/OR PREVENTING NETOSIS” (JUBILANT EPIPAD LLC, priority 2020, published 2023):

What was measured:
4T1 cells = test: Murine breast cancer efficacy model, 4T1 allograft; format: in vivo, Balb/C female mice; conditions: 4T1 bearing mice, oral gavage twice daily for 14 days
Experimental: (§1) PAD4 is highly expressed in malignant tumours of various cell types, Here, the mouse mammary carcinoma of 4T1 and EMT6 cells were used as an experimental model. Mouse 4T1, and EMT-6, a breast cancer cell line was sourced from American Type Culture Collection (ATCC), USA. Cells were grown according to the product information. To establish allografts, the cells were harvested by trypsinization when they reached around 70 to 80% confluence. After harvesting, Balb/C female mice (7-8 weeks) were implanted with 4T1 (1 million cells/site) and EMT-6 (0.5 million cells/site) subcutaneously in the dorsal right flank of mice using a 1 mL BD syringe attached to a 24-gauge needle. When the tumors became palpable tumor measurement was initiated and at an approximate tumor volume of ˜110 and 93 mm3, respectively. Animals were randomized into different treatment groups keeping tumor volume and the number of animals/group similar across the groups and compound 143 treatment was initiated. […]
(§2) Tumor dimensions (length and breadth) were measured on days 1 (animal randomization based on tumor volume) and thrice weekly thereafter until study termination.
(§3) Tumor volumes were calculated using the formula (b2*1)*0.52 where 1=length, b=breadth (Dusan Djokovic et al., BMC Cancer, 2010, 10:641). […]

EMT-6 cells = test: Murine breast cancer efficacy model, EMT-6 allograft; format: in vivo, Balb/C female mice; conditions: EMT-6 bearing mice, oral gavage twice daily for 13 days
Experimental: as §1, §2, §3

[1] = test system: silica induced lung fibrosis; test: Silica induced pro-fibrotic lung model; format: in vivo, C57BL/6 female mice; conditions: 50 mg/kg PO, BID, day 7 to 11, comparable to Nintedanib 100 mg/kg, QD
Experimental: The instillation of silica into the murine lung results in the development of fibrotic nodules that resemble simple silicotic nodular fibrosis, which develop in humans following some occupational exposures to dust and particulate aerosols. Silica can be delivered to rodents via aerosolization, intratracheal administration or oropharyngeal aspiration. C57BL/6 female mice at an age of 6-8 weeks were instilled with silica particles (2.5 mg/mouse) by non-surgical intratracheal (IT) method. The day of silica instillation was defined as day 0. Test compound was administered twice daily and standard of care was dosed once daily from day 7 to 11 for therapeutic intervention. Animals were monitored and evaluated for their clinical signs and body weight loss. Animals were euthanized on day 11 and the lungs were weighed and biomarkers were analyzed in lung.

[2] = test system: Bleomycin (BLM)-induced mice fibrosis; test: Bleomycin induced lung fibrosis model; format: in vivo, C57BL/6 male mice; conditions: 50 mg/kg, PO, BID
Source text: Bleomycin (BLM)-induced mice fibrosis is a well-established animal model used to study pathogenesis of lung fibrosis and to estimate the potential anti-fibrotic agents. C57BL/6 male mice at 6-8 weeks of age were purchased from vivo biotech India (under the license from Taconic). The procedures involving the care and use of animals in the study was reviewed and approved by the Institutional Animal Care and Use Committee (IAEC/JDC/2018-161R) prior to conduct. During the study, the care and use of animals was in accordance with the principles outlined in the Guide for the Care and Use of Laboratory Animals, 8th Edition, 2010 (National Research Council) and every effort was made to minimize suffering. The animals were acclimatized for 7 days prior to experimental use. Mice were caged with free access to food and fresh water in a temperature-controlled room (22° C.-24° C.) on a 12 h light/dark cycle. Pulmonary fibrosis was induced by invasive method in animals using single intra-tracheal administration of 50 μg bleomycin prepared in 50 μL of saline under isoflurane anaesthesia. […] Animals were monitored and evaluated for their body weight loss. […] Fibronectin was measured as a PD biomarker by RT-qPCR and fold change in mRNA level was calculated after normalizing to GAPDH. […] The Modified Ashcroft Index score was determined for the vehicle-treated control mice and the test compound treated mice.

DSS-induced colitis = test: Dextran sulfate sodium (DSS) induced colitis model; format: in vivo, C57BL/6 male mice; conditions: 1 mg/kg, QD, oral; day 10
Source text: Ulcerative colitis (UC) is an intermittent inflammatory bowel disease of the colonic mucosa, with periods of exacerbated symptoms (the active phase of the disease), and periods that are relatively symptom-free (remission phase of disease). Among various chemical induced colitis models, DSS-induced colitis model is widely used because of its simplicity and many similarities with human ulcerative colitis. C57BL/6 male mice at 6-8 weeks of age were purchased from vivo biotech India (under the license from Taconic). The procedures involving the care and use of animals in the study was reviewed and approved by the Institutional Animal Care and Use Committee (IAEC/JDC/2018-161R) prior to conduct. During the study, the care and use of animals was in accordance with the principles outlined in the Guide for the Care and Use of Laboratory Animals, 8th Edition, 2010 (National Research Council) and every effort was made to minimize suffering. The animals were acclimatized for ˜10 days prior to experimental use. Mice were caged with free access to food and fresh water in a temperature-controlled room (22° C.-24° C.) on a 12 h light/dark cycle. […]

SMILES	Body weight changes (4T1 cells)	Body weight changes (EMT-6 cells)	Fibronectin level in lung [1]	Lung weight [1]	Lung weight ([2]; day 0 to 14, compared with Nintedanib 100 mg/kg, QD)	Fibronectin mRNA in lung (RT-qPCR) ([2]; day 0 to 14, compared with Nintedanib)	Disease reversal (DAI) compared to disease control (DSS-induced colitis) [%]
N[C@@H]1CCCN(C(=O)c2cc3c4c(c2)nc(-c2cc5cccc(Cl)c5n2CC2CC2)n4CCO3)C1 [Compound 143, (R)-(3-aminopiperidin-1-yl)(2-(7-chloro-1-(cyclopropylmethyl)-1H-indol-2-yl)-3,4-dihydro-5-oxa-1,2a-diazaacenaphthylen-7-yl)methanone]	no significant body weight changes	no significant body weight changes	significant decrease	significant decrease	reduction in lung weight comparable to standard of care Nintedanib	stronger reduction of fibronectin mRNA as compared to Nintedanib	
CCCCCCCCc1ccc(CCC(N)(CO)CO)cc1 [Fingolimod]							~58.9
